Entries after “also recorded” stand apart in the source; their conditions may differ.
Assays:
[1] = test system: LNCaP prostate cancer cells; assay: Flow cytometric screen for sensitization to TRAIL-induced apoptosis (nuclear fragmentation by propidium iodide, mitochondrial depolarization by TMRM); assay type: cell-based
Method: Flow cytometric analysis of apoptosis with HTS platform was performed on cells that were plated on a 96-well plate as triplicate samples. After 24 hours in androgen-deprived conditions, the cells were pretreated with 40 μM lignans or lignan derivatives for 1 hour prior to addition of 10 ng/ml izTRAIL. Twenty hours later the plate was centrifuged with a culture plate rotor (1000 rpm, 3 minutes). For analysis of nuclear fragmentation, propidium iodide (PI) buffer (40 mM Na-citrate, 0.3% Triton X-100, 50 μg/ml PI; Sigma) was added to the wells. After 10 minutes incubation at room temperature, the plate was analyzed with LSRII flow cytometer equipped with HTS platform (PE-A channel). The fraction of sub-G0/G1 events (nuclear fragmentation) was gated as a measure of apoptotic cell death. For detection of mitochondrial depolarization, the cells were detached by trypsinization of the cells and incubated in 20 nM tetramethylrhodamine (TMRM; Invitrogen) in warm culture medium for 10 minutes before analysis. The plate was analyzed with LSRII flow cytometer equipped with HTS platform (FSC, PE-A channel). The cells with decreased TMRM incorporation were considered to have undergone mitochondrial membrane depolarization. Activated caspase-3 in cells was labeled with phycerythrin (PE)-conjugated antibody according to manufacturer's protocol (BD Pharmingen) and analyzed by FacsCalibur flow cytometer (FL-2, FSC).
LNCaP cells were cultured in the absence of 1 nM androgen and incubated with lignan compounds (40 μM) for 1 hour before izTRAIL treatment (10 ng/ml) or control for 20 hours. The samples were screened for nuclear fragmentation by propidium iodide labeling (FIG. 1A) or mitochondrial depolarization by TMRM labeling (FIG. 1B). The plates were analyzed with LSRII flow cytometer equipped with HTS platform (FSC, PE-A channels). The fraction of sub-G0/G1 events (nuclear fragmentation; PE-A channel) was gated as a measure of apoptotic cell death (FIG. 1A) and the cells with decreased TMRM incorporation (PE-A channel) were considered to have undergone mitochondrial membrane depolarization (FIG. 1B). Representative histograms and dot blots for control, TRAIL, nortrachelogenin (NTG) and NTG+TRAIL treatments are viewed.
Importantly, substitution with methyl group at position 8 further increases activity of dibenzylbutyrolactone lignans in sensitization of LNCaP prostate cancer cells to TRAIL-mediated apoptosis (FIG. 8). LNCaP cells were cultured in the absence of 1 nM androgen and incubated with indicated lignan compounds (40 μM) for 1 hour before izTRAIL treatment (10 ng/ml) or control for 20 hours. The cells were disrupted and the nuclei labeled for DNA content with propidium iodide. The samples were analyzed by flow cytometry and the fraction of sub-G0/G1 events (nuclear fragmentation) was detected as a measure of apoptotic cell death (mean±SEM; n=4). (FIG. 8A). Alternatively, LNCaP cells (+/−1 nM androgen) were incubated with 0-100 μM 8-Me-MAT for 1 hour after which total cell lysates were prepared and the samples were analyzed by Western blotting for Akt and phospho-Akt(ser473) expression.

EGF receptor (EGFR) = assay: EGF-induced EGFR tyrosine 1068 phosphorylation, Western blot; assay type: cell-based; conditions: LNCaP; pretreatment with 100 μM NTG; 20 ng/ml EGF, 5 minutes
Method: The cells were treated with 0-100 μM lignans or solvent control for indicated times. Human recombinant isoleucin-zipper TRAIL (izTRAIL; kindly provided by Professor Henning Walczak) was used at 0-1 μg/ml with an incubation time of 20 hours. Prior to 10 minutes treatment with 10 nM IGF-1 (Millipore) or 10 nM insulin (Sigma) the cells were serum-starved (1% FCS) overnight. EGFR stimulation was performed on serum-starved cells with 20 ng/ml EGF for 5 minutes (a kind gift from Professor Klaus Elenius laboratory).
Whole cell lysates were prepared by lysing floating and attached cells in Laemmli sample buffer and boiling the samples for 10 minutes. Proteins were separated by SDS-PAGE and transferred on PVDF membrane (Millipore). Western blotting was performed using antibodies against Akt, phospho-Akt (Ser473), GSK-3β, phospho-GSK-3β (Ser9) and phospho-EGF receptor Tyr(1068) (Cell Signalling Technology), Actin (clone AC-40; Sigma-Aldrich), PI3K p85α (clone 4/PI3-Kinase; BD Pharmingen), EGF receptor, Insulin receptor β and IGF-I receptor β (Santa Cruz Biotechnology), and Phospho-tyrosine (clone 4G10; Millipore). HRP-conjugated secondary antibodies were from Southern Biotechnology Associates, Promega, and Amersham Biosciences. The results were visualized using the ECL method (Amersham Biosciences) on x-ray film. […]

[2] = test system: non-malignant prostate epithelial RWPE-1 cells; assay: Caspase-3 activation by flow cytometry in a non-malignant prostate cell line; assay type: cell-based; conditions: 40 μM NTG 1 h before izTRAIL in different concentrations, 20 h
Method: The LNCaP prostate cancer cells (clone FGC; EACC) were cultured in RPMI-1640 medium (Sigma-Aldrich) supplemented with 10% fetal calf serum (BioClear), 2 mM L-glutamin, 100 U/ml penicillin, 100 μg/ml streptomycin and 1 mM sodium pyruvate (Sigma-Aldrich). One day prior to treatment medium was changed to phenol red free RPMI-1640 (Gibco) with or without 1 nM synthetic androgen (Mibolerone). This medium was supplemented with 10% charcoal/dextran treated fetal bovine serum (Hyclone), L-glutamine, penicillin and streptomycin. SV40 transformed prostate epithelial RWPE-1 cell line was kindly provided by Professor Olli Kallioniemi. […]
Flow cytometric analysis of apoptosis with HTS platform was performed on cells that were plated on a 96-well plate as triplicate samples. […] After 10 minutes incubation at room temperature, the plate was analyzed with LSRII flow cytometer equipped with HTS platform (PE-A channel). […] The plate was analyzed with LSRII flow cytometer equipped with HTS platform (FSC, PE-A channel). […] Activated caspase-3 in cells was labeled with phycerythrin (PE)-conjugated antibody according to manufacturer's protocol (BD Pharmingen) and analyzed by FacsCalibur flow cytometer (FL-2, FSC). […]

[3] = test system: DMBA-induced mammary tumors; conditions: cited from earlier work
[4] = cited from earlier work

COc1cc(CC2COC(=O)C2(O)Cc2ccc(O)c(OC)c2)ccc1O (centres unmarked) [NTG, Nortrachelogenin]
capacity to sensitize LNCaP prostate cancer cells to TRAIL-induced apoptosis ([1]; androgen-deprived, 40 μM lignan 1 hour before 10 ng/ml izTRAIL, 20 hours): highest capacity of the tested lignan compounds; also recorded: most efficient of the 27 tested lignan compounds; also recorded: clearly enhances the activity | increase of the apoptotic response compared to TRAIL alone (factor) ([1]; lignan in combination with TRAIL): 3.2 | EGF-induced tyrosine phosphorylation of EGFR (EGF receptor (EGFR)): attenuated the EGF-induced tyrosine phosphorylation of EGFR | sensitization of non-malignant cells to TRAIL (caspase-3 activation) [2]: did not display any sensitization to TRAIL | growth of DMBA-induced mammary tumors ([3]; during promotion and early progression): did not inhibit the growth of DMBA-induced mammary tumors | endocrine-modulatory effects ([3]; long-term experiments): weak endocrine-modulatory effects | conversion into the mammalian lignans ([4]; in vivo): not known to be converted into the mammalian lignans, ENL or END | absorption and excretion ([4]; urine): absorbed and excreted in urine as such

Source: patent US9168243B2, “Pharmaceutical compositions comprising 8-substituted dibenzylbutyrolactone lignans” (priority 2010, dated 2015)
